Laboratory results: patent US20070117743A1, “New antitumoral compounds” (priority 2003, published 2007)
Like-named read-outs stand apart in the source and are kept apart here. Where a SMILES comes first, the peptide text is derived from it. Bridges are numbered along the chain shown (N, C = ends). [ ]: non-standard residue; d: D form. The star is where a group is joined. d(aIle) = CC[C@H](C)[C@@H](N)C(=O)O; d(aThr) = C[C@@H](O)[C@@H](N)C(=O)O; Hexanoyl(5-Me) = CC(C)CCCC(=O)*; Orn = NCCC[C@H](N)C(=O)O; Dhb = C/C=C(\N)C(=O)O

Legend:
Format in all cases: cell-based, human
DU-145 = assay: SRB colorimetric assay of cell growth and viability, DU-145; details: 48 hours exposure
From the text: (§1) The finality of this assay is to interrupt the growth of a “in vitro” tumor cell culture by means a continued exhibition of the cells to the sample to be testing.
(§2) This form of the assay employs 96 well cell culture microplates of 9 mm diameter (Faircloth, 1988; Mosmann, 1983). Most of the cell lines are obtained from American Type Culture Collection (ATCC) derived from different human cancer types.
(§3) Cells are maintained in RPMI 1640 10% FBS, supplemented with 0.1 g/l penicillin and 0.1 g/l streptomycin sulfate and then incubated at 37° C., 5% CO2 and 98% humidity. For the experiments, cells were harvested from subconfluent cultures using trypsin and resuspended in fresh medium before plating.
(§4) Cells are seeded in 96 well microtiter plates, at 5×10^3 cells per well in aliquots of 195 μL medium, and they are allowed to attach to the plate surface by growing in drug free medium for 18 hours. Afterward, samples are added in aliquots of 5 μL in a ranging from 10 to 10^−8 μg/mL, dissolved in DMSO:EtOH:PBS (0.5:0.5:99). After 48 hours exposure, the antitumor effect are measured by the SRB methodology: cells are fixed by adding 50 μL of cold 50% (wt/vol) trichloroacetic acid (TCA) and incubating for 60 minutes at 4° C. Plates are washed with deionized water and dried. One hundred μL of SRB solution (0.4% wt/vol in 1% acetic acid) is added to each microtiter well and incubated for 10 minutes at room temperature. Unbound SRB is removed by washing with 1% acetic acid. Plates are air dried and bound stain is solubilized with Tris buffer. Optical densities are read on a automated spectrophotometric plate reader at a single wavelength of 490 nm.
(§5) The values for mean+/− SD of data from triplicate wells are calculated. Some parameters for cellular responses can be calculated: GI=growth inhibition, TGI=total growth inhibition (cytostatic effect) and LC=cell killing (cytotoxic effect).

K-562 = assay: SRB colorimetric assay of cell growth and viability, K-562; details: 48 hours exposure; for CC50: read-out: LC50 K-562
From the text: as §1, §2, §3, §4, §5

IGROV-ET = assay: SRB colorimetric assay of cell growth and viability, IGROV-ET; details: 48 hours exposure; for CC50: read-out: LC50 IGROV-ET
From the text: as §1, §2, §3, §4, §5

HeLa = assay: SRB colorimetric assay of cell growth and viability, HeLa; details: 48 hours exposure; for CC50: read-out: LC50 HELA
From the text: as §1, §2, §3, §4, §5

LoVo-Dox = assay: SRB colorimetric assay of cell growth and viability, LoVo-Dox; details: 48 hours exposure; for CC50: read-out: LC50 LOVO-DOX
From the text: as §1
A colorimetric type of assay, using sulforhodamine B (SRB) reaction has been adapted for a quantitative measurement of cell growth and viability [following the technique described by Philip Skehan, et al. (1990), New colorimetric cytotoxicity assay for anticancer drug screening, J. Natl. Cancer Inst., 82:1107-1112].
as §2, §3, §4, §5

PANC-1 = assay: SRB colorimetric assay of cell growth and viability, PANC-1; details: 48 hours exposure; for CC50: read-out: LC50 PANC-1
From the text: as §1, §2, §3, §4, §5

HeLa-APL = assay: SRB colorimetric assay of cell growth and viability, HeLa-APL; details: 48 hours exposure; for CC50: read-out: LC50 HELA-APL
From the text: as §1, §2, §3, §4, §5

LoVo = assay: SRB colorimetric assay of cell growth and viability, LoVo; details: 48 hours exposure; for CC50: read-out: LC50 LOVO
From the text: as §1, §2, §3, §4, §5

IGROV-1 = assay: SRB colorimetric assay of cell growth and viability, IGROV-1; details: 48 hours exposure
From the text: as §1, §2, §3, §4, §5

SK-MEL-28 = assay: SRB colorimetric assay of cell growth and viability, SK-MEL-28; details: 48 hours exposure; for CC50: read-out: LC50 MEL-28
From the text: as §1, §2, §3, §4, §5

HT-29 = assay: SRB colorimetric assay of cell growth and viability, HT-29; details: 48 hours exposure; for GI50: read-out: GI50 HT-29; for CC50: read-out: LC50 HT-29
From the text: as §1, §2, §3, §4, §5

A-549 = assay: SRB colorimetric assay of cell growth and viability, A-549; details: 48 hours exposure; for GI50: read-out: GI50 A-549; for CC50: read-out: LC50 A-549
From the text: as §1, §2, §3, §4, §5

## C/C=C1\NC(=O)[C@H](Cc2ccccc2)NC(=O)[C@@H](C(C)C)NC(=O)[C@@H]([C@@H](C)CC)NC(=O)[C@H](NC(=O)[C@H](NC(=O)[C@H](CCCN)NC(=O)[C@H]2CCCN2C(=O)[C@H](NC(=O)[C@@H](NC(=O)[C@@H](NC(=O)[C@@H](C)NC(=O)CCCC(C)C)[C@@H](C)O)C(C)C)C(C)C)[C@@H](C)CC)[C@@H](C)OC(=O)[C@H](C(C)C)NC1=O [Compound 34, [D-Ala^13]-KF]
DU-145
  GI50: 2.21 µM
  LC50 (concentration causing 50% net cell kill): 4.79 µM
  TGI DU-145: 3.26E−06 Molar
K-562
  GI50: 1.34 µM
  TGI K-562: 2.66E−06 Molar
  CC50: 5.25 µM
IGROV-ET
  GI50: 1.58 µM
  TGI IGROV-ET: 2.56E−06 Molar
  CC50: 4.14 µM
HeLa
  GI50: 1.46 µM
  TGI HELA: 2.43E−06 Molar
  CC50: 4.06 µM
LoVo-Dox
  GI50: 0.35 µM
  TGI LOVO-DOX: 9.73E−07 Molar
  CC50: 2.48 µM
PANC-1
  GI50: 1.28 µM
  TGI PANC-1: 2.58E−06 Molar
  CC50: 5.21 µM
HeLa-APL
  GI50: 1.59 µM
  TGI HELA-APL: 2.63E−06 Molar
  CC50: 4.34 µM
LoVo
  GI50: 0.904 µM
  TGI LOVO: 1.77E−06 Molar
  CC50: 2.98 µM
IGROV-1
  GI50: 1.41 µM
  LC50 (concentration causing 50% net cell killing): 4.03 µM
  TGI IGROV: 2.38E−06 Molar
SK-MEL-28
  GI50: 1.81 µM
  TGI MEL-28: 3.01E−06 Molar
  CC50: 5 µM
HT-29
  TGI HT-29: 2.32E−06 Molar
  GI50: 1.25 µM
  CC50: 4.3 µM
A-549
  TGI A-549: 3.20E−06 Molar
  GI50: 1.98 µM
  CC50: 5.17 µM

## C/C=C1\NC(=O)[C@H](Cc2ccccc2)NC(=O)[C@@H](C(C)C)NC(=O)[C@@H]([C@@H](C)CC)NC(=O)[C@H](NC(=O)[C@H](NC(=O)[C@H](CCCN)NC(=O)[C@H]2CCCN2C(=O)[C@H](NC(=O)[C@@H](NC(=O)[C@H](CCCN)NC(=O)CCCC(C)C)C(C)C)C(C)C)[C@@H](C)CC)[C@@H](C)OC(=O)[C@H](C(C)C)NC1=O [Compound 57, [Orn^12, noD-Val^13]-KF] ({Hexanoyl(5-Me)}-[Orn]V[dV][dP][Orn][d(aIle)][d(aThr)][d(aIle)][dV]F[Dhb]V; ester 7-C)
DU-145
  GI50: ≥ 7.18 µM
  LC50 (concentration causing 50% net cell kill): ≥ 7.18 µM
  TGI DU-145: 7.18E−06 Molar
K-562; SRB
  GI50: ≥ 7.18 µM
  TGI K-562: 7.18E−06 Molar
  CC50: ≥ 7.18 µM
IGROV-ET
  GI50: ≥ 7.18 µM
  TGI IGROV-ET: 7.18E−06 Molar
  CC50: ≥ 7.18 µM
HeLa; SRB
  GI50: ≥ 7.18 µM
  TGI HELA: 7.18E−06 Molar
  CC50: ≥ 7.18 µM
LoVo-Dox; SRB
  GI50: ≥ 7.18 µM
  TGI LOVO-DOX: 7.18E−06 Molar
  CC50: ≥ 7.18 µM
PANC-1; SRB
  GI50: 3.88 µM
  TGI PANC-1: 7.18E−06 Molar
  CC50: ≥ 7.18 µM
HeLa-APL; SRB
  GI50: ≥ 7.18 µM
  TGI HELA-APL: 7.18E−06 Molar
  CC50: ≥ 7.18 µM
LoVo; SRB
  GI50: ≥ 7.18 µM
  TGI LOVO: 7.18E−06 Molar
  CC50: ≥ 7.18 µM
IGROV-1
  GI50: ≥ 7.18 µM
  LC50 (concentration causing 50% net cell killing): ≥ 7.18 µM
  TGI IGROV: 7.18E−06 Molar
SK-MEL-28
  GI50: ≥ 7.18 µM
  TGI MEL-28: 7.18E−06 Molar
  CC50: ≥ 7.18 µM
HT-29; SRB
  TGI HT-29: 7.18E−06 Molar
  GI50: ≥ 7.18 µM
  CC50: ≥ 7.18 µM
A-549; SRB
  TGI A-549: 7.18E−06 Molar
  GI50: ≥ 7.18 µM
  CC50: ≥ 7.18 µM

## C/C=C1\NC(=O)[C@H](Cc2ccccc2)NC(=O)[C@@H](C(C)C)NC(=O)[C@@H]([C@@H](C)CC)NC(=O)[C@H](NC(=O)[C@H](NC(=O)[C@H](CCCN)NC(=O)[C@H]2CCCN2C(=O)[C@H](NC(=O)[C@@H](NC(=O)[C@@H](NC(=O)[C@H](NC(=O)c2ccc3c(c2)OCO3)C(C)C)[C@@H](C)O)C(C)C)C(C)C)[C@@H](C)CC)[C@@H](C)OC(=O)[C@H](C(C)C)NC1=O [Compound 23, [Pipe^14]-KF]
HT-29
  TGI HT-29: 3.30E−07 Molar
  GI50: 0.132 µM
  CC50: 0.528 µM
A-549
  TGI A-549: 1.98E−06 Molar
  GI50: 0.661 µM
  CC50: 4.62 µM
